Results: patent publication US20240150377A1, “MODULATORS OF CYSTIC FIBROSIS TRANSMEMBRANE CONDUCTANCE REGULATOR” (VERTEX PHARMACEUTICALS INCORPORATED, priority 2020, published 2024)
Where two headings read alike, the source gives them in different places. Each block holds one molecule with its values, some of them ahead of it.

Target: T1, CFTR (Homo sapiens, UniProt P13569, DEL508-508)
T1 construct: endogenous in cells; host or cells: primary human bronchial epithelial cells from CF subjects (F508del/MF-HBE), differentiated at air-liquid interface
T1 sequence (P13569 with tags, fused parts or gaps DEL508-508): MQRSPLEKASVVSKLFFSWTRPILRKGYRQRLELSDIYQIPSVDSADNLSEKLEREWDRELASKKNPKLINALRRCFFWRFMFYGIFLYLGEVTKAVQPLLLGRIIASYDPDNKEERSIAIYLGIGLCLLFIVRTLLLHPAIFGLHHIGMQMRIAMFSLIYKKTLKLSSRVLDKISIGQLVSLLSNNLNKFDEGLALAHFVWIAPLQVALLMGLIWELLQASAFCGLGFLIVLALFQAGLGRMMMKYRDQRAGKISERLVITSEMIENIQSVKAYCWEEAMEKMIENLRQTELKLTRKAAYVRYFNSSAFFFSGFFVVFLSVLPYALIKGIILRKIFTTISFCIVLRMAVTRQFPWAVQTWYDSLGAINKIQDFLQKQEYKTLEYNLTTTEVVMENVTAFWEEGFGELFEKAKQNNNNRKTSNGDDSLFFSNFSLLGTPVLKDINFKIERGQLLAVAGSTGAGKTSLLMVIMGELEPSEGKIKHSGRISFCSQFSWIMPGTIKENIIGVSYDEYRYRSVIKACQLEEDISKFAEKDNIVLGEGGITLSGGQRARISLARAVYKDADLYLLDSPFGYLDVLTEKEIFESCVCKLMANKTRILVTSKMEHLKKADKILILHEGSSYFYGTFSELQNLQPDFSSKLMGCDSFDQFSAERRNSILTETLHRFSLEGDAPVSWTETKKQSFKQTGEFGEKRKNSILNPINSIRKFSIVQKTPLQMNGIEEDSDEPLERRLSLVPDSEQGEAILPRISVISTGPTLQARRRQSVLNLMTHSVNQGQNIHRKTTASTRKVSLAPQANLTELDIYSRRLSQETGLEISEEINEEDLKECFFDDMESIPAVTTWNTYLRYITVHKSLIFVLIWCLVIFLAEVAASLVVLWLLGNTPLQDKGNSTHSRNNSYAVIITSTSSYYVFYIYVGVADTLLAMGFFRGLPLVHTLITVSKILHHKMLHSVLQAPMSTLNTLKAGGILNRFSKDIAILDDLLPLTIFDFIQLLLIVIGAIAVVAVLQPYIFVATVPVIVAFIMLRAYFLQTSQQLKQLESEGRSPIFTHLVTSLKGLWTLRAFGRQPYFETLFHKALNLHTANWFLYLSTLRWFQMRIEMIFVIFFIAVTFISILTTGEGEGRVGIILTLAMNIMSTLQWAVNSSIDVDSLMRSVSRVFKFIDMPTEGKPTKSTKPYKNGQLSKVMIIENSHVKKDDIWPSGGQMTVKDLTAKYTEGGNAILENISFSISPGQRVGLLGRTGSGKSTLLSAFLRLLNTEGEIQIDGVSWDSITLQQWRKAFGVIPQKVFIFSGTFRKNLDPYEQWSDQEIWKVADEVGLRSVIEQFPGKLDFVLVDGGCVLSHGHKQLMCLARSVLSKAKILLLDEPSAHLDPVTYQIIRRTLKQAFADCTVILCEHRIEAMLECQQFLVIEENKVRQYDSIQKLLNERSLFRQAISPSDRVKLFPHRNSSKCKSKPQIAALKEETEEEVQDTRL
Assay: HBE assay: Ussing chamber assay of CFTR-mediated short-circuit currents
Format: cell-based
Conditions: for EC50: read-out: HBE EC50; for activation at 10 µM: read-out: HBE Activity at 10 μM (%)
Outline: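 CFTR-mediated Isc (μA/cm²) equals the peak response to apical 20 μM forskolin minus the residual after a 20 μM each BPO/GlyH-101/CFTR inhibitor 172 cocktail, recorded in Ussing chambers at Vhold 0 mV, 37 °C, pH 7.4, with 30 μM apical amiloride. Cells were F508del/MF HBE cultures preincubated 18-24 h with corrector (concentration range or 10 μM) plus 1 μM ivacaftor in 20% human serum.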

[1] = HBE assay, read-out: HBE Max activity (%)
[2] = Table 11, read-out: HBE Max Activity (%)
[3] = Table 13, read-out: HBE Max Activity (%)
[4] = Table 10, read-out: HBE Max activity (%)

Structure (SMILES): COC[C@H]1CC[C@@H](C)N1c1cncc(CN2C(=O)c3cccc(c3)S(=O)(=O)Nc3nc(cc(-c4c(C)cccc4C)n3)OC[C@H]2CC(C)(C)C)n1 [Compound 1450]
- EC50 (HBE assay): < 1 µM
- Emax [1]: > 60%

Structure (SMILES): Cc1cccc(C)c1-c1cc2nc(n1)NS(=O)(=O)c1cccc(c1)C(=O)N(Cc1nc(C(C)(C)C)cs1)[C@H](CC(C)(C)C)CO2 [Compound 702]
- activation at 10 µM (Table 12, at 10 μM): > 600%

Structure (SMILES): Cc1cccc(C)c1-c1cc2nc(n1)NS(=O)(=O)c1cccc(c1)C(=O)N(Cc1nc(Br)ccc1F)[C@H](CC(C)(C)C)CO2 [Compound 372]
- activation at 10 µM (Table 13, at 10 μM): > 600%

Structure (SMILES): CCC(C)Oc1cnc(CN2C(=O)c3cccc(c3)S(=O)(=O)Nc3nc(cc(-c4c(C)cccc4C)n3)OC[C@H]2CC(C)C)nc1 (stereo in doubt) [Compound 1395]
- EC50 (HBE assay): < 1 µM
- Emax [1]: > 60%

Structure (SMILES): Cc1cccc(C)c1-c1cc2nc(n1)NS(=O)(=O)c1cccc(c1)C(=O)N(Cc1ncc(N3CC4(COC4)C3)cn1)[C@H](CC(C)(C)C)CO2 [Compound 867]
- EC50 (Table 13): < 1 µM
- Emax [3]: > 60%

Structure (SMILES): Cc1cccc(C)c1-c1cc2nc(n1)NS(=O)(=O)c1cccc(c1)C(=O)N(Cc1cccc(N3CCC[C@@H]3CC(C)C)n1)[C@H](CC(C)(C)C)CO2 [Compound 1428]
- EC50 (HBE assay): < 1 µM
- Emax [1]: > 60%

Structure (SMILES): Cc1cccc(C)c1-c1cc2nc(n1)NS(=O)(=O)c1cccc(c1)C(=O)N(Cc1ncc(N3CCC(C)(F)CC3)cn1)[C@H](CC(C)(C)C)CO2 [Compound 1442]
- activation at 10 µM (HBE assay, 10 μM): > 60%

Structure (SMILES): COCC1CCC(C)(C)N1c1cncc(CN2C(=O)c3cccc(c3)S(=O)(=O)Nc3nc(cc(-c4c(C)cccc4C)n3)OC[C@H]2CC(C)(C)C)n1 (stereo in doubt) [Compound 1480]
- EC50 (HBE assay): < 1 µM
- Emax [1]: > 60%

Structure (SMILES): Cc1cccc(C)c1-c1cc2nc(n1)NS(=O)(=O)c1cccc(c1)C(=O)N(Cc1nc3ccccn3c1C)[C@H](CC(C)(C)C)CO2 [Compound 700]
- activation at 10 µM (Table 12, at 10 μM): > 600%

Structure (SMILES): COCCN(c1cncc(CN2C(=O)c3cccc(c3)S(=O)(=O)Nc3nc(cc(-c4c(C)cccc4C)n3)OC[C@H]2CC(C)(C)C)n1)C1CCCC1 [Compound 1437]
- EC50 (HBE assay): < 1 µM
- Emax [1]: > 60%

Structure (SMILES): Cc1cccc(C)c1-c1cc2nc(n1)NS(=O)(=O)c1cccc(c1)C(=O)N(Cc1nc(C(C)(C)C)co1)[C@H](CC(C)(C)C)CO2 [Compound 167]
- activation at 10 µM (Table 12, at 10 μM): > 600%

Structure (SMILES): Cc1cccc(C)c1-c1cc2nc(n1)NS(=O)(=O)c1cccc(c1)C(=O)N(Cc1nc3ccccc3n1C)[C@H](CC(C)(C)C)CO2 [Compound 268]
- EC50 (Table 12): < 1 µM
- Emax (Table 12, read-out: HBE Max Activity (%)): > 60%

Structure (SMILES): CNC(=O)COc1ccccc1CN1C(=O)c2cccc(c2)S(=O)(=O)Nc2nc(cc(-c3c(C)cccc3C)n2)OC[C@H]1CC(C)(C)C [Compound 776]
- EC50 (Table 10): < 1 µM
- Emax [4]: > 60%

Now from value to molecule:

- EC50 (Table 11): < 1 µM
- Emax [2]: > 60%
Structure (SMILES): CCOc1ccc(CN2C(=O)c3cccc(c3)S(=O)(=O)Nc3nc(cc(-c4c(C)cccc4C)n3)OC[C@H]2CC(C)(C)C)nc1 [Compound 745]

- EC50 (HBE assay): < 1 µM
- Emax [1]: > 60%
Structure (SMILES): Cc1cccc(C)c1-c1cc2nc(n1)NS(=O)(=O)c1cccc(c1)C(=O)N(Cc1ncc(OCC3CC3)cn1)[C@H](CC(C)(C)C)CO2 [Compound 1390]

- EC50 (Table 11): < 1 µM
- Emax [2]: > 60%
Structure (SMILES): Cc1cccc(C)c1-c1cc2nc(n1)NS(=O)(=O)c1cccc(c1)C(=O)N(CC1CCCN(CCC(C)(C)C)C1=O)[C@H](CC(C)(C)C)CO2 (stereo partly drawn) [Compound 654]

- EC50 (Table 10): < 1 µM
- Emax [4]: > 60%
Structure (SMILES): Cc1cccc(C)c1-c1cc2nc(n1)NS(=O)(=O)c1cccc(c1)C(=O)N(CC1CCC(O)(CO)CC1)[C@H](CC(C)(C)C)CO2 (stereo partly drawn) [Compound 908]

- activation at 10 µM (Table 13, at 10 μM): > 600%
Structure (SMILES): Cc1cccc(C)c1-c1cc2nc(n1)NS(=O)(=O)c1cccc(c1)C(=O)N(CC(=O)N(C)CCN1CCOCC1)[C@H](CC(C)(C)C)CO2 [Compound 226]

- EC50 (Table 13): < 1 µM
- Emax [3]: > 60%
Structure (SMILES): Cc1cccc(C)c1-c1cc2nc(n1)NS(=O)(=O)c1cccc(c1)C(=O)N(Cc1ncc(C3CC4(CCC4)C3)cn1)[C@H](CC(C)(C)C)CO2 [Compound 160]

- activation at 10 µM (Table 13, at 10 μM): > 600%
Structure (SMILES): Cc1cccc(C)c1-c1cc2nc(n1)NS(=O)(=O)c1cccc(c1)C(=O)N(CC(=O)N1C[C@@H](C)[C@@H](C)C1)[C@H](CC(C)(C)C)CO2 [Compound 202]
